Measured values reported in ChEMBL document CHEMBL5441381, “ASAP - In vitro antiviral effect” (2024).

Tests used:
SARS-CoV-2 [1] = test: (§1) Functional immunofluorescence assay to measure dose dependent changes in antiviral-drug inhibitory efficacy against hCoV-19/USA-WA1/2020 in HeLa-ACE2 cells which are seeded prior to drug treatment, then infected with hCoV-19/USA-WA1/2020. Cells are fixed with 10 % formaldehyde, washed with PBS, permeabilized with permeabilization buffer, then washed with wash buffer. The cells are incubated with nucleoprotein primary antibody IC7C7. Following primary staining, cells are washed with wash buffer and incubated in a solution of with Alexa fluor 488 and DAPI. Infected and uninfected cells are visualized and analyzed by Gen5 software. The assay has been performed by Icahn School of Medicine at Mount Sinai.; format: organism-based, Homo sapiens
[2] = test system: Middle East respiratory syndrome-related coronavirus; test: microbe, parasite or virus in culture; format: functional, organism-based, Chlorocebus sabaeus, VeroE6/TMPRSS2; settings: Middle East respiratory syndrome-related coronavirus, VeroE6/TMPRSS2
SARS-CoV-2 [3] = test: as §1, with “iPSC-Pneumocyte” for “HeLa-ACE2”, “to” for “to drug”; format: organism-based, Homo sapiens; settings: Severe acute respiratory syndrome coronavirus 2, Pneumocyte; for EC90: Baseline response 0 %, Maximum response 100 %
[4] = test system: Middle East respiratory syndrome-related coronavirus; test: microbe, parasite or virus in culture; format: functional, organism-based, Chlorocebus sabaeus; settings: Vero 76
[5] = Severe acute respiratory syndrome coronavirus 2, HeLa-ACE2

Structure (SMILES) | EC50 (SARS-CoV-2 [1]; [5]) | EC50 [2] | EC90 [2] | EC50 (SARS-CoV-2 [3]) | other results
Cn1ncc(-c2cc3c(N[C@@H](c4ccc5c(n4)OCCO5)C(C)(C)C)ncnc3[nH]2)c1C#N | 1.49 µM | > 5 µM | > 5 µM | – | EC90 (SARS-CoV-2 [1]; Severe acute respiratory syndrome coronavirus 2, HeLa-ACE2, Baseline response 0 %, Hill slope -0.781, Maximum measured 101.751 %, Maximum response 100 %, Minimum measured 4.671 %, R squared 0.23): > 20 µM; EC90 (SARS-CoV-2 [1]; Severe acute respiratory syndrome coronavirus 2, HeLa-ACE2, Baseline response 0 %, Hill slope -0.984, Maximum measured 108.122 %, Maximum response 100 %, Minimum measured 8.006 %, R squared 0.973): > 10 µM; EC50 (SARS-CoV-2 [1]; hela-ace2): 1.6 µM
Cc1nn(C)cc1-c1cc2c(N[C@H](c3ccc4c(c3)S(=O)(=O)CCC4)C(C)C)ncnc2[nH]1 | > 20 µM | > 5 µM | > 5 µM | – | EC90 (SARS-CoV-2 [1]; Severe acute respiratory syndrome coronavirus 2, HeLa-ACE2, Baseline response 0 %, Hill slope -2.191, Maximum measured 111.189 %, Maximum response 100 %, Minimum measured 56.402 %, R squared 0.73): > 20 µM; EC90 (SARS-CoV-2 [1]; Severe acute respiratory syndrome coronavirus 2, HeLa-ACE2, Baseline response 0 %, Hill slope -5.449, Maximum measured 120.747 %, Maximum response 100 %, Minimum measured 82.491 %, R squared 0.099): > 20 µM
CC(C)[C@@H](Nc1ncnc2[nH]c(C(=O)N[C@@H]3CCN(C)C3)cc12)c1ccc2c(c1)S(=O)(=O)CCC2 | > 20 µM | > 5 µM | > 5 µM | > 50 µM | EC90 (SARS-CoV-2 [3]; Hill slope -0.484, Maximum measured 101.646 %, Minimum measured 52.305 %, R squared 0.601): > 50 µM; EC90 (SARS-CoV-2 [1]; Severe acute respiratory syndrome coronavirus 2, HeLa-ACE2, Baseline response 0 %, Hill slope 0.166, Maximum measured 108.327 %, Maximum response 100 %, Minimum measured 87.557 %, R squared 0.011): > 20 µM; EC90 (SARS-CoV-2 [1]; Severe acute respiratory syndrome coronavirus 2, HeLa-ACE2, Baseline response 0 %, Hill slope -0.788, Maximum measured 109.068 %, Maximum response 100 %, Minimum measured 93.8 %, R squared 0.114): > 20 µM
COc1ccc([C@H](Cc2nnn[nH]2)NC(=O)c2ncnc3[nH]ccc23)cc1 | > 20 µM | > 5 µM | > 5 µM | – | EC90 (SARS-CoV-2 [1]; Severe acute respiratory syndrome coronavirus 2, HeLa-ACE2, Baseline response 0 %, Hill slope -0.286, Maximum measured 116.588 %, Maximum response 100 %, Minimum measured 75.952 %, R squared 0.436): > 20 µM; EC90 (SARS-CoV-2 [1]; Severe acute respiratory syndrome coronavirus 2, HeLa-ACE2, Baseline response 0 %, Hill slope -1.346, Maximum measured 102.013 %, Maximum response 100 %, Minimum measured 88.847 %, R squared 0.139): > 20 µM
CNCc1cc(-c2cc3c(N[C@@H](c4ccc5c(c4)S(=O)(=O)CCC5)C(C)C)ncnc3[nH]2)co1 | > 20 µM | > 5 µM | > 5 µM | 3.34 µM | EC90 (SARS-CoV-2 [3]; Hill slope -0.579, Maximum measured 92.989 %, Minimum measured 2.106 %, R squared 0.758): > 50 µM; EC90 (SARS-CoV-2 [1]; Severe acute respiratory syndrome coronavirus 2, HeLa-ACE2, Baseline response 0 %, Hill slope -1.471, Maximum measured 134.366 %, Maximum response 100 %, Minimum measured 28.123 %, R squared 0.287): > 20 µM; EC90 (SARS-CoV-2 [1]; Severe acute respiratory syndrome coronavirus 2, HeLa-ACE2, Baseline response 0 %, Hill slope -3.107, Maximum measured 113.346 %, Maximum response 100 %, Minimum measured 56.361 %, R squared 0.692): > 20 µM; EC50 (SARS-CoV-2 [1]; hela-ace2): 11.6 µM
C[C@H](C(=O)O)[C@@H](NC(=O)c1ncnc2[nH]ccc12)c1ccc(Br)cc1 | > 20 µM | > 5 µM | > 5 µM | – | EC90 (SARS-CoV-2 [1]; Severe acute respiratory syndrome coronavirus 2, HeLa-ACE2, Baseline response 0 %, Hill slope -0.083, Maximum measured 104.611 %, Maximum response 100 %, Minimum measured 71.809 %, R squared 0.037): > 20 µM; EC90 (SARS-CoV-2 [1]; Severe acute respiratory syndrome coronavirus 2, HeLa-ACE2, Maximum measured 2742.07 %, Minimum measured 91.919 %): > 20 µM
CNC(=O)Cn1cc(-c2cc3c(N[C@@H](c4ccc5c(c4)S(=O)(=O)CCC5)C(C)C)ncnc3[nH]2)cn1 | > 20 µM | > 5 µM | > 5 µM | > 50 µM | EC90 (SARS-CoV-2 [3]; Hill slope -7.964, Maximum measured 130.776 %, Minimum measured 73.915 %, R squared 0.151): > 50 µM; EC90 (SARS-CoV-2 [1]; Severe acute respiratory syndrome coronavirus 2, HeLa-ACE2, Baseline response 0 %, Hill slope 1.327, Maximum measured 117.537 %, Maximum response 100 %, Minimum measured 90.244 %, R squared 0.066): > 20 µM; EC90 (SARS-CoV-2 [1]; Severe acute respiratory syndrome coronavirus 2, HeLa-ACE2, Maximum measured 116.513 %, Minimum measured 98.017 %): > 20 µM
CC(C)[C@@H](Nc1ncnc2[nH]c(-c3cnn(C)c3C#N)cc12)c1ccc2c(n1)OCCO2 | – | > 5 µM | > 5 µM | 12.7 µM | EC90 (SARS-CoV-2 [3]; EC90 CI (lower) 0 uM, EC90 CI (upper) 0 uM, Hill slope -10.753, Maximum measured 116.418 %, Minimum measured 5.314 %, R squared 0.553): 15.6 µM; EC90 (SARS-CoV-2 [1]; Baseline response 0 %, EC90 CI (lower) 0.252 uM, EC90 CI (upper) 0.378 uM, Hill slope -1.375, Maximum measured 105.062 %, Maximum response 100 %, Minimum measured 1.471 %, R squared 0.975): 7.55 µM; EC90 (SARS-CoV-2 [1]; Baseline response 0 %, EC90 CI (lower) 1.033 uM, EC90 CI (upper) 2.755 uM, Hill slope -2.587, Maximum measured 119.294 %, Maximum response 100 %, Minimum measured 1.653 %, R squared 0.93): 9.22 µM; EC90 (SARS-CoV-2 [1]; Severe acute respiratory syndrome coronavirus 2, HeLa-ACE2, Baseline response 0 %, Hill slope -24.486, Maximum measured 143.7 %, Maximum response 100 %, Minimum measured 4.604 %, R squared 0.738): 6.44 µM; EC90 (SARS-CoV-2 [1]; Severe acute respiratory syndrome coronavirus 2, HeLa-ACE2, Baseline response 0 %, EC90 CI (lower) 1.926 uM, EC90 CI (upper) 3.068 uM, Hill slope -3.008, Maximum measured 101.777 %, Maximum response 100 %, Minimum measured 4.949 %, R squared 0.988): 10.5 µM
CNC(=O)c1c[nH]c2ncnc(N[C@H](c3ccc4c(c3)S(=O)(=O)CCC4)C(C)C)c12 | > 20 µM | – | – | 6.74 µM | EC90 (SARS-CoV-2 [3]; Hill slope -0.412, Maximum measured 88.736 %, Minimum measured 31.934 %, R squared 0.862): > 50 µM; EC90 (SARS-CoV-2 [1]; Severe acute respiratory syndrome coronavirus 2, HeLa-ACE2, Baseline response 0 %, Hill slope -10.584, Maximum measured 109.331 %, Maximum response 100 %, Minimum measured 66.391 %, R squared 0.561): > 20 µM; EC50 [4]: > 32 µM
